Measurements as given in DBAASP.
≈ marks a conversion by molar mass, not a printed value.

What was measured:
Experiment in all cases: ≥ marks a high value that may be exact or a test limit, other limits are often not marked, values filed in µg/mL are converted to µM
[1] = test system: Candida albicans ATCC 64550
Escherichia coli BL21 = test system: Escherichia coli BL21
[2] = test system: Pseudomonas aeruginosa PAO1
Pseudomonas syringae = test system: Pseudomonas syringae
[3] = test system: Streptococcus pyogenes GAS M1T1
[4] = test system: Xanthomonas axonopodis pv. phaseoli ATCC 9563
[5] = test system: Bacillus subtilis CGMCC 1.3376
[6] = test system: Escherichia coli CGMCC 1.8732
[7] = test system: Klebsiella pneumoniae CGMCC 1.1736
[8] = test system: Pseudomonas aeruginosa CGMCC 1.2421
[9] = test system: Staphylococcus aureus CGMCC 1.8721
[10] = test system: Staphylococcus epidermidis CGMCC 1.4260
[11] = test system: Bacillus subtilis ATCC 6633
Escherichia coli K-12 = test system: Escherichia coli K-12
[12] = test system: Micrococcus luteus NCIMB 13267
[13] = test system: Pseudomonas aeruginosa ATCC 27853
[14] = test system: Staphylococcus aureus ATCC 6538
[15] = test system: Acinetobacter baumannii ATCC 19606
[16] = test system: Enterococcus faecalis ATCC 7080
[17] = test system: Escherichia coli ATCC 11775
[18] = test system: Pseudomonas aeruginosa ATCC 25668
[19] = test system: Staphylococcus aureus ATCC 29213
[20] = test system: Staphylococcus aureus ATCC 33591
[21] = test system: Staphylococcus aureus ATCC BAA-44
[22] = test system: Staphylococcus epidermidis ATCC 12228
[23] = test system: Staphylococcus epidermidis ATCC 51625
[24] = test system: Streptococcus gordonii ATCC 10558
[25] = test system: Streptococcus mutans GS-5
[26] = test system: Streptococcus mutans UA159
[27] = test system: Streptococcus sanguinis ATCC 49295
[28] = test system: Escherichia coli ATCC 25322
[29] = test system: Staphylococcus aureus ATCC 25923
Aeromonas hydrophila = test system: Aeromonas hydrophila
Escherichia coli = test system: Escherichia coli
Staphylococcus aureus = test system: Staphylococcus aureus
Streptococcus pyogenes = test system: Streptococcus pyogenes
Vibrio alginolyticus = test system: Vibrio alginolyticus
Vibrio fluvialis = test system: Vibrio fluvialis
Vibrio parahaemolyticus = test system: Vibrio parahaemolyticus

Q: With `CC(=O)N[C@@H](C)C(=O)N[C@@H](C)C(=O)N[C@@H](C)C(=O)N[C@@H](C)C(=O)N[C@@H](C)C(=O)N[C@@H](C)C(=O)N[C@@H](C)C(=O)N[C@@H](C)C(=O)N[C@@H](C)C(=O)N[C@@H](CCCCN)C(N)=O` [AAAAAAAAAK] as the molecule, how does the MIC [1] read?
A: Its MIC is ≥ 100 µM.

Q: With `CC[C@H](C)[C@H](NC(=O)[C@H](CCCCN)NC(=O)[C@H](CC(N)=O)NC(=O)[C@H](CCCCN)NC(=O)[C@H](CC(C)C)NC(=O)[C@H](Cc1ccc(O)cc1)NC(=O)[C@H](CCC(N)=O)NC(=O)[C@H](CCCN=C(N)N)NC(=O)[C@@H](NC(=O)[C@@H](NC(=O)[C@H](CCCCN)NC(=O)[C@H](CCCCN)NC(=O)CNC(=O)[C@H](C)N)[C@@H](C)O)[C@@H](C)CC)C(=O)N[C@@H](CCCCN)C(=O)N[C@@H](CCCCN)C(=O)N[C@@H](CCCCN)C(=O)N[C@@H](Cc1c[nH]c2ccccc12)C(=O)N[C@@H](CCCN=C(N)N)C(=O)N[C@@H](CCCCN)C(=O)N[C@@H](C)C(=O)N[C@H](C(=O)N[C@H](C(=O)N[C@@H](C)C(=O)N[C@@H](Cc1c[nH]c2ccccc12)C(=O)O)[C@@H](C)CC)C(C)C` [AGKKTIRQYLKNKIKKKWRKAVIAW] as the molecule, how does the MIC (Escherichia coli BL21) read?
A: Its MIC is 8 µM (≈ 24.5 µg/mL).

Q: And the MIC [2]?
A: The MIC was 10 µM (≈ 30.6 µg/mL).

Q: And the MIC (Pseudomonas syringae)?
A: The MIC was 8 µM (≈ 24.5 µg/mL).

Q: And the MIC [3]?
A: The MIC was 8 µM (≈ 24.5 µg/mL).

Q: And the MIC [4]?
A: Its MIC is 1 µM (≈ 3.06 µg/mL).

Q: For `CC[C@H](C)[C@H](NC(=O)[C@H](C)N)C(=O)NCC(=O)N[C@@H](CO)C(=O)N[C@H](C(=O)N[C@@H](CC(C)C)C(=O)NCC(=O)N[C@@H](CCCN=C(N)N)C(=O)N[C@@H](CC(C)C)C(=O)N[C@@H](C)C(=O)N[C@@H](CCCCN)C(=O)NCC(=O)N[C@@H](CC(C)C)C(=O)N1CCC[C@H]1C(=O)N[C@H](C(=O)N[C@@H](CC(C)C)C(=O)N[C@@H](CCCCN)C(=O)N[C@@H](CO)C(=O)N[C@@H](Cc1c[nH]c2ccccc12)C(=O)N[C@H](C(=O)N[C@@H](CCCCN)C(=O)N[C@@H](CC(N)=O)C(=O)N[C@@H](CCCN=C(N)N)C(N)=O)[C@@H](C)CC)[C@@H](C)O)[C@@H](C)CC` [AIGSILGRLAKGLPTLKSWIKNR], which MIC [5] is on record?
A: Its MIC is 12.5 µM (≈ 31.2 µg/mL).

Q: What about the MIC [6] of the same molecule?
A: The MIC was 25 µM (≈ 62.3 µg/mL).

Q: And the MIC [7]?
A: Its MIC is 25 µM (≈ 62.3 µg/mL).

Q: And the MIC [8]?
A: Its MIC is 25 µM (≈ 62.3 µg/mL).

Q: And the MIC [9]?
A: Its MIC is ≥ 100 µM.

Q: And the MIC [10]?
A: Its MIC is 6.25 µM (≈ 15.6 µg/mL).

Q: Which MIC [11] does the source give for `CC(C)C[C@H](NC(=O)[C@H](CCCCN)NC(=O)[C@H](C)NC(=O)[C@H](CC(C)C)NC(=O)[C@H](CCCCN)NC(=O)[C@H](CCC(N)=O)NC(=O)[C@H](CCCCN)NC(=O)[C@H](CC(C)C)NC(=O)[C@H](CCCCN)NC(=O)[C@H](CCC(N)=O)NC(=O)[C@H](CC(C)C)NC(=O)[C@H](CCCCN)NC(=O)[C@H](C)NC(=O)[C@H](CCCCN)NC(=O)[C@H](CC(C)C)NC(=O)[C@H](CCCCN)NC(=O)[C@H](C)NC(=O)[C@H](CC(C)C)NC(=O)[C@H](CCCCN)NC(=O)[C@H](CCC(N)=O)NC(=O)[C@@H](N)CCCCN)C(=O)O` [KQKLAKLKAKLQKLKQKLAKL] here?
A: The MIC was 6 µM (≈ 14.7 µg/mL).

Q: What about the MIC (Escherichia coli K-12) of the same molecule?
A: The MIC was 3 µM (≈ 7.34 µg/mL).

Q: What about the MIC [12] of the same molecule?
A: The MIC was 12 µM (≈ 29.4 µg/mL).

Q: What about the MIC [13] of the same molecule?
A: The MIC was 12 µM (≈ 29.4 µg/mL).

Q: And the MIC [14]?
A: Its MIC is > 50 µM.

Q: For `CC(C)C[C@H](NC(=O)[C@H](Cc1c[nH]c2ccccc12)NC(=O)[C@H](CCCCN)NC(=O)[C@H](CC(C)C)NC(=O)[C@H](Cc1c[nH]c2ccccc12)NC(=O)[C@H](CCCCN)NC(=O)[C@H](CCCCN)NC(=O)[C@H](CC(C)C)NC(=O)[C@H](Cc1c[nH]c2ccccc12)NC(=O)[C@@H](N)CCCCN)C(=O)N[C@@H](CCCCN)C(=O)N[C@@H](CCCCN)C(N)=O` [KWLKKWLKWLKK], which MIC [15] is on record?
A: Its MIC is 4.75 µM (≈ 8 µg/mL).

Q: And the MIC [16]?
A: The MIC was 9.49 µM (≈ 16 µg/mL).

Q: And the MIC [17]?
A: The MIC was 1.19 µM (≈ 2 µg/mL).

Q: And the MIC [18]?
A: The MIC was 1.19 µM (≈ 2 µg/mL).

Q: And the MIC [19]?
A: The MIC was 1.19 µM (≈ 2 µg/mL).

Q: And the MIC [20]?
A: Its MIC is 1.19 µM (≈ 2 µg/mL).

Q: And the MIC [21]?
A: The MIC was 2.37 µM (≈ 4 µg/mL).

Q: What about the MIC [22] of the same molecule?
A: Its MIC is 1.19 µM (≈ 2 µg/mL).

Q: What about the MIC [23] of the same molecule?
A: The MIC was 1.19 µM (≈ 2 µg/mL).

Q: What does the source list for `CC(C)C[C@H](NC(=O)[C@H](CCCN=C(N)N)NC(=O)[C@H](Cc1ccccc1)NC(=O)[C@H](Cc1ccccc1)NC(=O)[C@@H](NC(=O)[C@H](CO)NC(=O)[C@@H](N)CC(C)C)[C@@H](C)O)C(=O)N[C@@H](Cc1ccccc1)C(=O)N[C@@H](CC(N)=O)C(=O)N[C@@H](CCCN=C(N)N)C(=O)N[C@@H](CO)C(=O)N[C@@H](Cc1ccccc1)C(=O)N[C@H](C(=O)N[C@@H](CCC(N)=O)C(=O)NCC(=O)N[C@@H](CCCN=C(N)N)C(=O)N[C@@H](CCCN=C(N)N)C(=O)N[C@@H](CCCN=C(N)N)C(=O)N[C@@H](CCCN=C(N)N)C(=O)N[C@@H](CO)C(=O)N[C@H](C(=O)N[C@@H](CCC(N)=O)C(=O)N[C@@H](Cc1c[nH]c2ccccc12)C(=O)N[C@@H](CS)C(=O)N[C@@H](C)C(=O)O)C(C)C)[C@@H](C)O` [LSTFFRLFNRSFTQGRRRRSVQWCA]?
A: MIC [24]: 16 µM (≈ 49.8 µg/mL); MIC [25]: 4.27 µM (≈ 13.3 µg/mL); MIC [26]: 3.42 µM (≈ 10.7 µg/mL); MIC [27]: 31.9 µM (≈ 99.6 µg/mL)

Q: For `CC(C)C[C@H](NC(=O)CNC(=O)[C@H](CC(N)=O)NC(=O)[C@@H](NC(=O)[C@@H](NC(=O)CNC(=O)[C@H](CC(C)C)NC(=O)[C@H](C)NC(=O)[C@H](CCCCN)NC(=O)[C@H](CC(N)=O)NC(=O)[C@H](CC(C)C)NC(=O)[C@H](CC(C)C)NC(=O)[C@@H](N)CC(N)=O)[C@@H](C)O)C(C)C)C(=O)N[C@@H](CC(C)C)C(=O)NCC(=O)N[C@@H](CCCN=C(N)N)C(=O)N[C@@H](CO)C(=O)O` [NLLNKALGTVNGLLGRS], which MIC [28] is on record?
A: The MIC was ≥ 64 µM.

Q: And the MIC [29]?
A: Its MIC is 32 µM (≈ 55.7 µg/mL).

Q: How did the MIC (Aeromonas hydrophila) turn out when `CC[C@H](C)[C@H](NC(=O)[C@H](CCCCN)NC(=O)[C@H](Cc1cnc[nH]1)NC(=O)[C@H](CC(C)C)NC(=O)[C@H](CC(C)C)NC(=O)[C@H](Cc1ccccc1)NC(=O)[C@H](CC(N)=O)NC(=O)[C@@H](N)C(C)C)C(=O)N[C@@H](Cc1ccc(O)cc1)C(=O)NCC(=O)N[C@@H](CC(N)=O)C(=O)N[C@H](C(=O)N[C@@H](CCCN=C(N)N)C(=O)N[C@@H](CC(=O)O)C(=O)N[C@@H](CO)C(=O)O)[C@@H](C)CC` [VNFLLHKIYGNIRDS] was run?
A: The MIC was 2.18 µM (≈ 3.9 µg/mL).

Q: What about the MIC (Escherichia coli) of the same molecule?
A: The MIC was 2.18 µM (≈ 3.9 µg/mL).

Q: What about the MIC (Staphylococcus aureus) of the same molecule?
A: Its MIC is 34.9 µM (≈ 62.5 µg/mL).

Q: And the MIC (Streptococcus pyogenes)?
A: The MIC was ≥ 34.9 µM.

Q: And the MIC (Vibrio alginolyticus)?
A: The MIC was 2.18 µM (≈ 3.9 µg/mL).

Q: What about the MIC (Vibrio fluvialis) of the same molecule?
A: Its MIC is ≥ 34.9 µM.

Q: And the MIC (Vibrio parahaemolyticus)?
A: Its MIC is 18 µM (≈ 32.2 µg/mL).
